According to US6911445B2, “Antidepressant cycloalkylamine derivatives of heterocycle-fused benzodioxans” (Wyeth, priority 2002, dated 2005):
Structures can show the parent of a compound that is named as a salt.

How the values were obtained:
[1] = target: T1, cloned human 5HT1A receptors (Homo sapiens, UniProt P08908); assay: 35S-GTPγS binding assay, membranes containing cloned human 5HT1A receptors; assay type: biochemical; conditions: for EC50: given as EC50, increase in 35S-GTPγS binding (agonist), read-out: 5HT1A Function EC50; for Emax: given as Emax, agonist effect, read-out: 5HT1A Function Emax; for IC50: antagonist potency, reversal of the standard agonist 8-OH-DPAT, read-out: 5HT1A Function IC50; for 5HT1A Function (Imax): maximum inhibitory effect, value in parentheses
T1 construct: expressed in transfected cells
T1 sequence (P08908 1-422): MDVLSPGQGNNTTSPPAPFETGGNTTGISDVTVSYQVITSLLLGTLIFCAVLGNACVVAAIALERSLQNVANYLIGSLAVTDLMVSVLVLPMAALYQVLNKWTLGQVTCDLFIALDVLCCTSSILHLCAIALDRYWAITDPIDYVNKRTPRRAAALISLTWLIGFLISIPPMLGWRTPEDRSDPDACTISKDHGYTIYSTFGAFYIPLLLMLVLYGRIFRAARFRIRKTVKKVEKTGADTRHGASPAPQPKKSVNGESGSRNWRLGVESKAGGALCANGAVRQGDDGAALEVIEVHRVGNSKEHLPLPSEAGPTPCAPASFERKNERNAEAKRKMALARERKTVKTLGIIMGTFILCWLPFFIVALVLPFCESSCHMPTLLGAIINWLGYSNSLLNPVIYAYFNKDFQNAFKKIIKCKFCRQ
Method: Antagonist activity at 5HT1A receptors was established by using a ^35S-GTPγS binding assay similar to that used by Lazareno and Birdsall (Br. J. Pharmacol. 109:1120, 1993), in which the test compound's ability to affect the binding of ^35S-GTPγS to membranes containing cloned human 5HT1A receptors was determined. Agonists produce an increase in binding whereas antagonists produce no increase but rather reverse the effects of the standard agonist 8-OH-DPAT. The test compound's maximum inhibitory effect is represented as the Imax, while its potency is defined by the IC50.

human 5HT1A receptors = target: T2, human 5HT1A receptors (Homo sapiens, UniProt P08908); assay: Displacement of [3H] 8-OH-DPAT from 5HT1A receptor in stably transfected CHO cells; assay type: binding; conditions: CHO cells with human 5HT1A receptors, read-out: 5HT1A Receptor Affinity Ki
T2 construct: expressed in transfected cells; host or cells: CHO cells
T2 sequence (P08908 1-422): T1 sequence (P08908 1-422)
Excerpt: High affinity for the serotonin 5HT1A receptor was established by testing the claimed compound's ability to displace [^3H] 8-OH-DPAT (dipropylamino-tetralin) from the 5HT1A serotonin receptor following a modification of the procedure of Hall, et al., J. Neurochem. 44, 1685 (1985), which utilizes CHO cells stably transfected with human 5HT1A receptors.

serotonin transporter = target: T3, serotonin transporter (Rattus norvegicus, UniProt P31652); assay: Displacement of 3H-paroxetine from male rat frontal cortical membranes (serotonin transporter affinity); assay type: binding; conditions: read-out: 5-HT Transporter Affinity Ki
T3 construct: displace ^3H-paroxetine from male rat frontal cortical membranes; from tissue; host or cells: male rat frontal cortex membranes
T3 sequence (P31652 whole entry): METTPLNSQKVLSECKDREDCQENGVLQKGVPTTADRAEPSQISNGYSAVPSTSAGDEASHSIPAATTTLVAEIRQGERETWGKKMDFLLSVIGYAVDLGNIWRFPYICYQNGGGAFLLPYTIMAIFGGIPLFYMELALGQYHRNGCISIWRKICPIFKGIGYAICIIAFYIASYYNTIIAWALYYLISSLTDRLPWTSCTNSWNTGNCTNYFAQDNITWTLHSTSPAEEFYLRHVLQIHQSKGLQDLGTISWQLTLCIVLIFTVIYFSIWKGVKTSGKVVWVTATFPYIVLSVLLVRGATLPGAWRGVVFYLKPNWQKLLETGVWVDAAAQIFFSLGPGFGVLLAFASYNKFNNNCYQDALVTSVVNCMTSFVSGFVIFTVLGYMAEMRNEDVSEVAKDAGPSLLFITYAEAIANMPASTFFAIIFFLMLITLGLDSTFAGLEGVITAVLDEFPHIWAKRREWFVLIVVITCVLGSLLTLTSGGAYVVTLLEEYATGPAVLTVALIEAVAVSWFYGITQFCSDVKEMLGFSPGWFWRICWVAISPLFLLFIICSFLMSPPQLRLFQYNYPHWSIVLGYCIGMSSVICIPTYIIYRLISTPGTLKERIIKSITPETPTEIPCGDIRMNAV

melting point	Ki (human 5HT1A receptors) [nM]	Ki (serotonin transporter) [nM]	IC50 [1] [nM]	5HT1A Function (Imax) [1] [%]	Compound	EC50 [1] [nM]	Emax [1] [%]
–	5.01	0.84	242	100	Cc1ccc2c3c(ccc2n1)OC[C@H](CN(C)[C@H]1CC[C@@H](c2c[nH]c4ccc(F)cc24)C1)O3 (mixture of isomers) [Example 9, N-[(cis)-3-(5-fluoro-1H-indol-3-yl)cyclopentyl]-N-methyl-N-{[(2S)-8-methyl-2,3-dihydro[1,4]dioxino[2,3-f]quinolin-2-yl]methyl}amine]	–	–
79 to 82 °C	28.6	1.38	172	85	Cc1nc2ccc3c(c2o1)O[C@@H](CN[C@H]1CC[C@H](c2c[nH]c4ccc(F)cc24)C1)CO3 (mixture of isomers) [Example 10, N-[(trans)-3-(5-Fluoro-1H-indol-3-yl)cyclopentyl]-N-{[(8S)-2-methyl-7,8-dihydro[1,4]dioxino[2,3-g][1,3]benzoxazol-8-yl]methyl}amine]	–	–
198 to 199 °C (dec.)	–	–	–	–	Cc1ccc2c3c(ccc2n1)OC[C@H](CN(C)[C@@H]1CC[C@H](c2c[nH]c4ccc(F)cc24)C1)O3 (relative stereo) (as salt: fumarate) [Example 13, N-[(1R*,3S*)-3-(5-fluoro-1H-indol-3-yl)cyclopentyl]-N-methyl-N-{[(2S)-8-methyl-2,3-dihydro[1,4]dioxino[2,3-f]quinolin-2-yl]methyl}amine]	–	–
–	18.8	5.45	494	100	Cc1ccc2c3c(ccc2n1)OC[C@H](CN(C)[C@@H]1CC[C@H](c2c[nH]c4ccc(F)cc24)C1)O3 (relative stereo) [Example 13, N-[(1R*,3S*)-3-(5-fluoro-1H-indol-3-yl)cyclopentyl]-N-methyl-N-{[(2S)-8-methyl-2,3-dihydro[1,4]dioxino[2,3-f]quinolin-2-yl]methyl}amine]	–	–
200 to 201 °C	–	–	–	–	Cc1ccc2c3c(ccc2n1)OCC(CNC1CCC(c2cn(C)c4ccc(F)cc24)C1)O3 (single isomer, unassigned) (as salt: fumarate) [Example 5]	–	–
–	12.5	2.11	190	88	Cc1ccc2c3c(ccc2n1)OCC(CNC1CCC(c2cn(C)c4ccc(F)cc24)C1)O3 (single isomer, unassigned) [Example 5-Isomer A, N-[(1R*,3S*)-3-(5-fluoro-1-methyl-1H-indol-3-yl)cyclopentyl]-N-{](2S)-8-methyl-2,3-dihydro[1,41]dioxino[2,3-f]quinoli-2-yl]methyl}amine]	–	–
–	1.91	3	158	97	Cc1ccc2c3c(ccc2n1)OCC(CNC1CCC(c2cn(C)c4ccc(F)cc24)C1)O3 (single isomer, unassigned) [Example 5-Isomer B, N-[(1S*,3R*)-3-(5-fluoro-1-methyl-1H-indol-3-yl)cyclopentyl]-N-{[(2S)-8-methyl-2,3-dihydro[1,4]dioxino[2,3-f]quinoli-2-yl]methyl}amine]	–	–
–	5.35	3.69	142	69	Cc1ccc2c3c(ccc2n1)OCC(CNC1CCC(c2cn(C)c4ccc(F)cc24)C1)O3 (single isomer, unassigned) [Example 5]	–	–
–	20.3	1.67	228	55	Cc1ccc2c3c(ccc2n1)OCC(CNC1CCC(c2cn(C)c4ccc(F)cc24)C1)O3 (single isomer, unassigned) [Example 6]	–	–
–	51.7	19	–	–	Cc1ccc2c3c(ccc2n1)OC[C@H](CN[C@H]1CC[C@@H](c2c[nH]c4ccc(F)cc42)CC1)O3 [Example 7, (cis)-N-[4-(5-fluoro-1H-indol-3-yl)cyclohexyl]-N-{[(2S)-8-methyl-2,3-dihydro[1,4]dioxino[2,3-f]quinolin-2-yl]methyl}amine]	–	–
–	14.6	4.16	–	–	Cc1ccc2c3c(ccc2n1)OC[C@H](CN[C@H]1CC[C@H](c2c[nH]c4ccc(F)cc42)CC1)O3 [Example 8, (trans)-N-[4-(5-fluoro-1H-indol-3-yl)cyclohexyl]-N-{[(2S)-8-methyl-2,3-dihydro[1,4]dioxino[2,3-f]quinolin-2-yl]methyl}amine]	66	95
80 to 82 °C	84.4	11	–	–	Cc1nc2ccc3c(c2o1)O[C@@H](CN[C@H]1CC[C@@H](c2c[nH]c4ccc(F)cc42)CC1)CO3 [Example 12]	–	–

Further lines, the compound ahead of its results:

Compound	melting point	Ki (human 5HT1A receptors) [nM]	Ki (serotonin transporter) [nM]	IC50 [1] [nM]	5HT1A Function (Imax) [1] [%]	EC50 [1] [nM]	Emax [1] [%]
Cc1ccc2c3c(ccc2n1)OC[C@H](CN[C@H]1CC[C@@H](c2c[nH]c4ccc(F)cc24)C1)O3 (mixture of isomers) (as salt: HCl) (hydrate or solvate) [Example 3, N-[(cis)-3-(5-fluoro-1H-indol-3-yl)cyclopentyl]-N-{[(2S)-8-methyl-2,3-dihydro[1,4]dioxino[2,3-f]quinolin-2-yl]methyl}amine]	234 to 235 °C	–	–	–	–	–	–
Cc1ccc2c3c(ccc2n1)OC[C@H](CN[C@H]1CC[C@@H](c2c[nH]c4ccccc24)C1)O3 (mixture of isomers) [Example 1, N-[(cis)-3-(1H-indol-3-yl)cyclopentyl]-N-{[(2S)-8-methyl-2,3-dihydro[1,4]dioxino[2,3-f]quinolin-2-yl]methyl}amine]	–	2.56	1.25	–	–	33	38
Cc1ccc2c3c(ccc2n1)OC[C@H](CN[C@H]1CC[C@@H](c2c[nH]c4ccc(F)cc24)C1)O3 (mixture of isomers) [Example 3, N-[(cis)-3-(5-fluoro-1H-indol-3-yl)cyclopentyl]-N-{[(2S)-8-methyl-2,3-dihydro[1,4]dioxino[2,3-f]quinolin-2-yl]methyl}amine]	–	4.73	0.93	83	100	–	–
Cc1ccc2c3c(ccc2n1)OC[C@H](CN[C@@H]1CC[C@H](c2c[nH]c4ccc(F)cc24)C1)O3 (single isomer, unassigned) [Example 3-Isomer A, N-[(1R*,3S*)-3-(5-fluoro-1H-indol-3-yl)cyclopentyl]-N-{[(2S)-8-methyl-2,3-dihydro[1,4]dioxino[2,3-f]quinolin-2-yl]methyl}amine]	–	8.73	0.38	69	82	–	–
Cc1ccc2c3c(ccc2n1)OCC(CNC1CCC(c2c[nH]c4ccc(F)cc24)C1)O3 (single isomer, unassigned) [Example 3-Isomer B, N-[(1S*,3R*)-3-(5-fluoro-1H-indol-3-yl)cyclopentyl]-N-{[(2S)-8-methyl-2,3-dihydror[1,4]dioxino[2,3-f]quinolin-2-yl]methyl}amine]	–	2.03	0.33	34	97	–	–
Cc1ccc2c3c(ccc2n1)OC[C@H](CN[C@H]1CC[C@H](c2c[nH]c4ccc(F)cc24)C1)O3 (single isomer, unassigned) [Example 4-Isomer A, N-[(1S*,3S*)-3-(5-fluoro-1H-indol-3-yl)cyclopentyl]-N-{[(2S)-8-methyl-2,3-dihydro[1,4]dioxino[2,3-f]quinolin-2-yl]methyl}amine]	–	7.72	0.54	60	56	–	–
Cc1ccc2c3c(ccc2n1)OC[C@H](CN[C@@H]1CC[C@@H](c2c[nH]c4ccc(F)cc24)C1)O3 (single isomer, unassigned) [Example 4-Isomer B, N-[(1R*,3R*)-3-(5-fluoro-1H-indol-3-yl)cyclopentyl]-N-{[(2S)-8-methyl-2,3-dihydro[1,4]dioxino[2,3-f]quinolin-2-yl]methyl}amine]	–	26.5	0.67	1440	100	–	–
Cc1ccc2c3c(ccc2n1)OCC(CNC1CCC(c2c[nH]c4ccccc24)C1)O3 [Example 2, N-[(trans)-3-(1H-indol-3-yl)cyclopentyl]-N-{[(2S)-8-methyl-2,3-dihydro[1,4]dioxino[2,3-f]quinoli-2-yl]methyl}amine]	–	12.8	1.69	–	–	–	–
Cc1ccc2c3c(ccc2n1)OCC(CNC1CCC(c2c[nH]c4ccc(F)cc24)C1)O3 [Example 4, N-[(trans)-3-(5-fluoro-1H-indol-3-yl)cyclopentyl]-N-{[(2S)-8-methyl-2,3-dihydro[1,4]dioxino[2,3-f]quinoli-2-yl]methyl}amine]	–	9.12	0.62	44	84	–	–
